Laboratory results: article PMC4917279 (Journal of Medicinal Chemistry, 2016)

Key:
EPHB6 = molecular target: T1, EPHB6 (Homo sapiens, UniProt O15197); experiment: KINOMEscan; assay type: binding; settings: read-out: %Ctrl @ 1000 nM
T1 construct: purchased DiscoveRx KINOMEscan

NEK6 = molecular target: T2, NEK6 (Homo sapiens, UniProt Q9HC98); experiment: KINOMEscan; assay type: binding; settings: read-out: %Ctrl @ 1000 nM
T2 construct: purchased DiscoveRx KINOMEscan

LATS1 = molecular target: T3, LATS1 (Homo sapiens, UniProt O95835); experiment: KINOMEscan; assay type: binding; settings: read-out: %Ctrl @ 1000 nM
T3 construct: purchased DiscoveRx KINOMEscan
T3 sequence (O95835 whole entry): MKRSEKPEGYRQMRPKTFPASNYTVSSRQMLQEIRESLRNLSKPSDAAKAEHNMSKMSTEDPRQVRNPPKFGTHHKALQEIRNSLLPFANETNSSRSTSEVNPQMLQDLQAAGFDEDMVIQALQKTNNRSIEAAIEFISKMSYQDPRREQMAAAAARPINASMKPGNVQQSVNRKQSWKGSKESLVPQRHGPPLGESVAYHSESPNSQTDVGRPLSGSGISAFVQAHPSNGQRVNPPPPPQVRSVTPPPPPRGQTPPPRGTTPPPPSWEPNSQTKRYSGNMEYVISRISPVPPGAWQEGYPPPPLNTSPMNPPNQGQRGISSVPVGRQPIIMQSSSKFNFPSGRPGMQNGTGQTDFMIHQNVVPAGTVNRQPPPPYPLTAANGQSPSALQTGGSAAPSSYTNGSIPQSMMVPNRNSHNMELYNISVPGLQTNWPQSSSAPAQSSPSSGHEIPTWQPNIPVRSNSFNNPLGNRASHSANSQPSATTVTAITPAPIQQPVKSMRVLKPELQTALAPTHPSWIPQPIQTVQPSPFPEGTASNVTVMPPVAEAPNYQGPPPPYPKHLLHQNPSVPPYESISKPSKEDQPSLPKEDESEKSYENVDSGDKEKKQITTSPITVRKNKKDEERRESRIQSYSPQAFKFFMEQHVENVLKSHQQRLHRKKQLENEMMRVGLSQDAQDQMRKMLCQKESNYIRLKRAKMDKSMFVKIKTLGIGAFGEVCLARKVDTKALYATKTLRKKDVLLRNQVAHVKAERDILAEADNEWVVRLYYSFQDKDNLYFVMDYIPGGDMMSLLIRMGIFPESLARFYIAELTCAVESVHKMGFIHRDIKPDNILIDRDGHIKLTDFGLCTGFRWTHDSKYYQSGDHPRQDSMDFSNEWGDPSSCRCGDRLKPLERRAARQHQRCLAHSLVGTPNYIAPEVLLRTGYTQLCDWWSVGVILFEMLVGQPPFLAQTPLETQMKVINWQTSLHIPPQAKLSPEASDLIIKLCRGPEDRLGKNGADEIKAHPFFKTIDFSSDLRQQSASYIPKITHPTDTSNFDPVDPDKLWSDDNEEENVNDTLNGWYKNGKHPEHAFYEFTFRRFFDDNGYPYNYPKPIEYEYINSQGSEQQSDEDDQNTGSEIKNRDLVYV

SNRK = molecular target: T4, SNRK (Homo sapiens, UniProt Q9NRH2); experiment: KINOMEscan; assay type: binding; settings: read-out: %Ctrl @ 1000 nM
T4 construct: purchased DiscoveRx KINOMEscan

MARK4 = molecular target: T5, MARK4 (Homo sapiens, UniProt Q96L34); experiment: KINOMEscan; assay type: binding; settings: read-out: %Ctrl @ 1000 nM
T5 construct: purchased DiscoveRx KINOMEscan

TIE1 = molecular target: T6, TIE1 (Homo sapiens, UniProt P35590); experiment: KINOMEscan; assay type: binding; settings: read-out: %Ctrl @ 1000 nM
T6 construct: purchased DiscoveRx KINOMEscan

KIT(D816V) = molecular target: T7, KIT(D816V) (Homo sapiens, UniProt P10721, D816V); experiment: KINOMEscan; assay type: binding; settings: read-out: %Ctrl @ 1000 nM
T7 construct: purchased DiscoveRx KINOMEscan

LATS2 = molecular target: T8, LATS2 (Homo sapiens, UniProt Q9NRM7); experiment: KINOMEscan; assay type: binding; settings: read-out: %Ctrl @ 1000 nM
T8 construct: purchased DiscoveRx KINOMEscan

CLK4 = molecular target: T9, CLK4 (Homo sapiens, UniProt Q9HAZ1); experiment: KINOMEscan; assay type: binding; settings: read-out: %Ctrl @ 1000 nM
T9 construct: purchased DiscoveRx KINOMEscan

DYRK1A = molecular target: T10, DYRK1A (Homo sapiens, UniProt Q13627); experiment: KINOMEscan; assay type: binding; settings: read-out: %Ctrl @ 1000 nM
T10 construct: purchased DiscoveRx KINOMEscan

MST3 = molecular target: T11, MST3 (Homo sapiens, UniProt Q9Y6E0); experiment: KINOMEscan; assay type: binding; settings: read-out: %Ctrl @ 1000 nM
T11 construct: purchased DiscoveRx KINOMEscan

CDKL1 = molecular target: T12, CDKL1 (Homo sapiens, UniProt Q00532); experiment: KINOMEscan; assay type: binding; settings: read-out: %Ctrl @ 1000 nM
T12 construct: purchased DiscoveRx KINOMEscan

STK39 = molecular target: T13, STK39 (Homo sapiens, UniProt Q9UEW8); experiment: KINOMEscan; assay type: binding; settings: read-out: %Ctrl @ 1000 nM
T13 construct: purchased DiscoveRx KINOMEscan

YANK1 = molecular target: T14, YANK1 (Homo sapiens, UniProt Q8WU08); experiment: KINOMEscan; assay type: binding; settings: read-out: %Ctrl @ 1000 nM
T14 construct: purchased DiscoveRx KINOMEscan

[1] = Caco2 drug permeability assay; assay type: in vitro ADME; settings: human, Caco-2, pH 7.2
Procedure: Caco-2 cells (purchased from DSMZ Braunschweig, Germany) were seeded at a density of 4.5 × 10^4 cell per well on 24-well insert plates, 0.4 μm pore size, and grown for 15 days in DMEM medium supplemented with 10% fetal bovine serum, 1% GlutaMAX (100×, GIBCO), 100 μg/mL penicillin, 100 μg/mL streptomycin (GIBCO), and 1% nonessential amino acids (100×). Cells were maintained at 37 °C in a humified 5% CO2 atmosphere. Medium was changed every second to third day. Before running the permeation assay, the culture medium was replaced by an FCS-free Hepes-carbonate transport buffer (pH 7.2). For assessment of monolayer integrity, the transepithelial electrical resistance (TEER) was measured. Test compounds were dissolved in DMSO and added either to the apical or basolateral compartment in a final concentration of 2 μM. Before and after incubation at 37 °C, samples were taken from both compartments. Analysis of compound content was performed following precipitation with methanol and LC/MS/MS analysis. Permeability (Papp) was calculated in the apical to basolateral (A → B) and basolateral to apical (B → A) directions. The apparent permeability was calculated using following equation: [drawing 3] where Vr = volume of medium in the receiver chamber, P0 = measured peak area of the test drug in the donor chamber at t = 0, S = surface area of the monolayer, P2 = measured peak area of the test drug in the acceptor chamber after incubation for 2 h, and t = incubation time. The efflux ratio basolateral (B) to apical (A) was calculated by dividing Papp (B–A) by Papp (A–B). In addition, the compound recovery was calculated. Reference compounds were analyzed in parallel as assay controls. All samples were analyzed by LC/MS/MS.

IKK-epsilon = molecular target: T15, IKK-epsilon (Homo sapiens, UniProt Q14164); experiment: KINOMEscan; assay type: binding; settings: read-out: %Ctrl @ 1000 nM
T15 construct: purchased DiscoveRx KINOMEscan

[2] = molecular target: T16, ABL1(T315I)-nonphosphorylated (Homo sapiens, UniProt P00519, T315I); experiment: KINOMEscan; assay type: binding; settings: read-out: %Ctrl @ 1000 nM
T16 construct: purchased DiscoveRx (KINOMEscan service)

MKNK2 = molecular target: T17, MKNK2 (Homo sapiens, UniProt Q9HBH9); experiment: KINOMEscan; assay type: binding; settings: read-out: %Ctrl @ 1000 nM
T17 construct: purchased DiscoveRx KINOMEscan
T17 sequence (Q9HBH9 whole entry): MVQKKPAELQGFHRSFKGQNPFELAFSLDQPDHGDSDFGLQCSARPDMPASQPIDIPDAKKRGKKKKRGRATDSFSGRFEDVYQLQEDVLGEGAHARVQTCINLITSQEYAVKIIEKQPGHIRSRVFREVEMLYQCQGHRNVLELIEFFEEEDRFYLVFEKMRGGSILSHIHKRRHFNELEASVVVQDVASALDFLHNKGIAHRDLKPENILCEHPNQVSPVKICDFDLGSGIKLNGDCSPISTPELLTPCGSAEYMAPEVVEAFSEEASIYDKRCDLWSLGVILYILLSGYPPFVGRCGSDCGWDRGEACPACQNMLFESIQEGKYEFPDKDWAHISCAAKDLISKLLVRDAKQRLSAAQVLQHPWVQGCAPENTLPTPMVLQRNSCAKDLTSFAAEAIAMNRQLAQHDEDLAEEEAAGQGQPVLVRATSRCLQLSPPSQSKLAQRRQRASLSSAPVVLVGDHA

CDK9 = molecular target: T18, CDK9 (Homo sapiens, UniProt P50750); experiment: KINOMEscan; assay type: binding; settings: read-out: %Ctrl @ 1000 nM
T18 construct: purchased DiscoveRx KINOMEscan
T18 sequence (P50750 whole entry): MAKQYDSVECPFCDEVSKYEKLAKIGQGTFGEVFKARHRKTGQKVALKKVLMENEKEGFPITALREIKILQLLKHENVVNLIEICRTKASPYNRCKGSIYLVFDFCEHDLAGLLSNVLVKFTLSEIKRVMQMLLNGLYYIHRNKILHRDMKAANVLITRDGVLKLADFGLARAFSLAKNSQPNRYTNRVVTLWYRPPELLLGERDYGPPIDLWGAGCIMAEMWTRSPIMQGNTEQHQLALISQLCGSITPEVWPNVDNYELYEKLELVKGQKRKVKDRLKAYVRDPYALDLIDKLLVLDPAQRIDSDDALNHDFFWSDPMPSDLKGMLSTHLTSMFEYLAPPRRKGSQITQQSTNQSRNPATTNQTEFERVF

DAPK1 = molecular target: T19, DAPK1 (Homo sapiens, UniProt P53355); experiment: KINOMEscan; assay type: binding; settings: read-out: %Ctrl @ 1000 nM
T19 construct: purchased DiscoveRx KINOMEscan

PRKR = molecular target: T20, PRKR (Homo sapiens, UniProt P19525); experiment: KINOMEscan; assay type: binding; settings: read-out: %Ctrl @ 1000 nM
T20 construct: purchased DiscoveRx KINOMEscan

ERN1 = molecular target: T21, ERN1 (Homo sapiens, UniProt O75460); experiment: KINOMEscan; assay type: binding; settings: read-out: %Ctrl @ 1000 nM
T21 construct: purchased DiscoveRx KINOMEscan

MRCKB = molecular target: T22, MRCKB (Homo sapiens, UniProt Q9Y5S2); experiment: KINOMEscan; assay type: binding; settings: read-out: %Ctrl @ 1000 nM
T22 construct: purchased DiscoveRx KINOMEscan

AURKB = molecular target: T23, AURKB (Homo sapiens, UniProt Q96GD4); experiment: KINOMEscan; assay type: binding; settings: read-out: %Ctrl @ 1000 nM
T23 construct: purchased DiscoveRx KINOMEscan

PRKCI = molecular target: T24, PRKCI (Homo sapiens, UniProt P41743); experiment: KINOMEscan; assay type: binding; settings: read-out: %Ctrl @ 1000 nM
T24 construct: purchased DiscoveRx KINOMEscan

MTOR = molecular target: T25, MTOR (Homo sapiens, UniProt P42345); experiment: KINOMEscan; assay type: binding; settings: read-out: %Ctrl @ 1000 nM
T25 construct: purchased DiscoveRx KINOMEscan

ALK(C1156Y) = molecular target: T26, ALK(C1156Y) (Homo sapiens, UniProt Q9UM73, C1156Y); experiment: KINOMEscan; assay type: binding; settings: read-out: %Ctrl @ 1000 nM
T26 construct: purchased DiscoveRx KINOMEscan
T26 sequence (Q9UM73 19-1620 C1156Y): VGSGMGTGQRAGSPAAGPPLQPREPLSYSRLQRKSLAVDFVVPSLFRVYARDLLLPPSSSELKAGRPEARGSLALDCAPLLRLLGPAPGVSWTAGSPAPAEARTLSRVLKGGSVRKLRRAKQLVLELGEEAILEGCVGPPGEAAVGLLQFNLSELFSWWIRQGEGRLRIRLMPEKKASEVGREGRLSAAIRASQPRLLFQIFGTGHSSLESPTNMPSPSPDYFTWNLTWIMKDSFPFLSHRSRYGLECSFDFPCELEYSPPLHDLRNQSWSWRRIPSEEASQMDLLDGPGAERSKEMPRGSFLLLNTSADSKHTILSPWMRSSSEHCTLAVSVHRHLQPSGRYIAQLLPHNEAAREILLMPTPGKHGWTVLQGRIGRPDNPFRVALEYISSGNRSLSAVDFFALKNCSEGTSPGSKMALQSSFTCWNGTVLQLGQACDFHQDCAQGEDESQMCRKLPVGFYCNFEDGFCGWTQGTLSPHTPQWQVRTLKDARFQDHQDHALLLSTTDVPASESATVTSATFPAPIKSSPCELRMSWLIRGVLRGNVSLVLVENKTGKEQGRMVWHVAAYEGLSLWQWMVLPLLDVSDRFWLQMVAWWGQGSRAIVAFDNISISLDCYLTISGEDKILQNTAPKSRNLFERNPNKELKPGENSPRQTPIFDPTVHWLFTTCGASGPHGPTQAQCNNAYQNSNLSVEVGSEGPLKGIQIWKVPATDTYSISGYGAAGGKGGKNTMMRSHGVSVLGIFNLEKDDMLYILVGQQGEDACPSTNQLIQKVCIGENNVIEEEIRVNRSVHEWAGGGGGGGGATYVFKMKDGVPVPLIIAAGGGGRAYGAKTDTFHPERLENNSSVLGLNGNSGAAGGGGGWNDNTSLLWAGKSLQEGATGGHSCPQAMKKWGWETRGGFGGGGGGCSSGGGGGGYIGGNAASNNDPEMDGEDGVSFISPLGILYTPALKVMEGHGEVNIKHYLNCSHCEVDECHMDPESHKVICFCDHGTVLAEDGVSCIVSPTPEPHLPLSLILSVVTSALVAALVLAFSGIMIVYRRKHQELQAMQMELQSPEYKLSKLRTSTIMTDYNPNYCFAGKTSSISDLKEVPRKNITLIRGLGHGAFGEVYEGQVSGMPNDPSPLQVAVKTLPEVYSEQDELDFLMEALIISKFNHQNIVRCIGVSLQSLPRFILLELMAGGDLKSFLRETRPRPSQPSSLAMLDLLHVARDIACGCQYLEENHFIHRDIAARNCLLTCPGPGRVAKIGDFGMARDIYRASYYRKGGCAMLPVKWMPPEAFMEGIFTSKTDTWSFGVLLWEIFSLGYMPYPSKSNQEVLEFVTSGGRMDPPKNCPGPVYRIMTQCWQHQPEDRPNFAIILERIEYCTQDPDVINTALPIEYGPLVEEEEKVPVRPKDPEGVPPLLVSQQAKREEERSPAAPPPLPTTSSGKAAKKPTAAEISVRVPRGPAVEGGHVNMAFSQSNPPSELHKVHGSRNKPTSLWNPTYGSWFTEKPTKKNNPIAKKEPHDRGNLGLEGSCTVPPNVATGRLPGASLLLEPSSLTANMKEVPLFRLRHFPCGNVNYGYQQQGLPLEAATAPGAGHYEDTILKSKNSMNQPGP

FLT3(R834Q) = molecular target: T27, FLT3(R834Q) (Homo sapiens, UniProt P36888, R834Q); experiment: KINOMEscan; assay type: binding; settings: read-out: %Ctrl @ 1000 nM
T27 construct: purchased DiscoveRx KINOMEscan

SG110 = molecular target: T28, SG110 (Homo sapiens, UniProt P0C264); experiment: KINOMEscan; assay type: binding; settings: read-out: %Ctrl @ 1000 nM
T28 construct: purchased DiscoveRx KINOMEscan
T28 sequence (P0C264 whole entry): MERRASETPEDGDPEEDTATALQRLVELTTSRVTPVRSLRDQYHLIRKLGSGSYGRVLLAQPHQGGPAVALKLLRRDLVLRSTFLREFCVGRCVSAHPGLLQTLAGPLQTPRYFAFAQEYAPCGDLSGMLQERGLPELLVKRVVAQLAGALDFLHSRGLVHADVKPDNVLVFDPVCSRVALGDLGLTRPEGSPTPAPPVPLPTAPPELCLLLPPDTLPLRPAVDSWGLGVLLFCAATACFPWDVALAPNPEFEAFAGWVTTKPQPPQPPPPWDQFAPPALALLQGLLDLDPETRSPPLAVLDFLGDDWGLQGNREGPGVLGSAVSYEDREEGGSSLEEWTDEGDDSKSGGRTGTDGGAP

PIK3CA(H1047Y) = molecular target: T29, PIK3CA(H1047Y) (Homo sapiens, UniProt P42336, H1047Y); experiment: KINOMEscan; assay type: binding; settings: read-out: %Ctrl @ 1000 nM
T29 construct: purchased DiscoveRx KINOMEscan
T29 sequence (P42336 whole entry H1047Y): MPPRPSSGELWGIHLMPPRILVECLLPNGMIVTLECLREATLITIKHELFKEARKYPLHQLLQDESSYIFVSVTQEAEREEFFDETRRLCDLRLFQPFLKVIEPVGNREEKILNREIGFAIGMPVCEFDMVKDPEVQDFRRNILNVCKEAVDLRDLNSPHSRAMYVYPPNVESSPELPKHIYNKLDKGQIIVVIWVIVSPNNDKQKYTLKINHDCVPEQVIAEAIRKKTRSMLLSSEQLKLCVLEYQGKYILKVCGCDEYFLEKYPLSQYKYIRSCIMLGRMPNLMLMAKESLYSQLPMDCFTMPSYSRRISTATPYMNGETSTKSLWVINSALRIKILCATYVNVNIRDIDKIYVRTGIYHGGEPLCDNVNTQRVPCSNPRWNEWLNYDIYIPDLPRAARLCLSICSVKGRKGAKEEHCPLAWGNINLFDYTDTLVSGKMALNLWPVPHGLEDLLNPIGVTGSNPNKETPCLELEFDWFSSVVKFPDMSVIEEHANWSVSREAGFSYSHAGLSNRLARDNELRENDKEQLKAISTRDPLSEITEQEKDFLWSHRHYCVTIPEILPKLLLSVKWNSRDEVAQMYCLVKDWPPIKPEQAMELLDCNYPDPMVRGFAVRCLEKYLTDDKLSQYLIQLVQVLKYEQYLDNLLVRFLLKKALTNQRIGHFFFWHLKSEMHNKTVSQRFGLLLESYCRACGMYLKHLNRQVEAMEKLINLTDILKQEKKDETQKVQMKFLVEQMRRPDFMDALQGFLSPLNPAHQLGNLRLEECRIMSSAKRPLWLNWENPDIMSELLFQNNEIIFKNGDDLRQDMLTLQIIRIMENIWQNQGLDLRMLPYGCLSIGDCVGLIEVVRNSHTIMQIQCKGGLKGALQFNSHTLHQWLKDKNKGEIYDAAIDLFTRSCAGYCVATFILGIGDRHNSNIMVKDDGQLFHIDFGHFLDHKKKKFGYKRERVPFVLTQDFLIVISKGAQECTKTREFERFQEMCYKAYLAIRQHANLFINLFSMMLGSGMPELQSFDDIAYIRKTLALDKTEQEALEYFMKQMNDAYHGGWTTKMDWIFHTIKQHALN

DCAMKL3 = molecular target: T30, DCAMKL3 (Homo sapiens, UniProt Q9C098); experiment: KINOMEscan; assay type: binding; settings: read-out: %Ctrl @ 1000 nM
T30 construct: purchased DiscoveRx KINOMEscan

HIPK2 = molecular target: T31, HIPK2 (Homo sapiens, UniProt Q9H2X6); experiment: KINOMEscan; assay type: binding; settings: read-out: %Ctrl @ 1000 nM
T31 construct: purchased DiscoveRx KINOMEscan

PIK3CA(C420R) = molecular target: T32, PIK3CA(C420R) (Homo sapiens, UniProt P42336, C420R); experiment: KINOMEscan; assay type: binding; settings: read-out: %Ctrl @ 1000 nM
T32 construct: purchased DiscoveRx KINOMEscan
T32 sequence (P42336 whole entry C420R): as the sequence (P42336 whole entry H1047Y) above, with C420R, Y1047H counted along it

PIM1 = molecular target: T33, PIM1 (Homo sapiens, UniProt P11309); experiment: KINOMEscan; assay type: binding; settings: read-out: %Ctrl @ 1000 nM
T33 construct: purchased DiscoveRx KINOMEscan

Structure (SMILES): CCN(C(=O)CO)[C@H]1CN(/C(=N\C#N)Nc2cccc(OC(F)F)c2)N=C1c1ccc(Cl)c(Cl)c1 [(S)-4]
- remaining binding at 1 µM (EPHB6): 100%
- remaining binding at 1 µM (NEK6): 91%
- remaining binding at 1 µM (LATS1): 90%
- remaining binding at 1 µM (SNRK): 85%
- remaining binding at 1 µM (MARK4): 75%
- remaining binding at 1 µM (TIE1): 99%
- remaining binding at 1 µM (KIT(D816V)): 86%
- remaining binding at 1 µM (LATS2): 100%
- remaining binding at 1 µM (CLK4): 94%
- remaining binding at 1 µM (DYRK1A): 100%
- remaining binding at 1 µM (MST3): 100%
- remaining binding at 1 µM (CDKL1): 76%
- remaining binding at 1 µM (STK39): 77%
- remaining binding at 1 µM (YANK1): 77%
- Papp A→B at 2 h, 2 µM [1]: 3.4 ×10⁻⁶ cm/s
- remaining binding at 1 µM (IKK-epsilon): 99%
- remaining binding at 1 µM [2]: 77%
- remaining binding at 1 µM (MKNK2): 96%
- remaining binding at 1 µM (CDK9): 74%
- remaining binding at 1 µM (DAPK1): 100%
- remaining binding at 1 µM (PRKR): 84%
- remaining binding at 1 µM (ERN1): 93%
- remaining binding at 1 µM (MRCKB): 100%
- remaining binding at 1 µM (AURKB): 93%
- remaining binding at 1 µM (PRKCI): 63%
- remaining binding at 1 µM (MTOR): 100%
- remaining binding at 1 µM (ALK(C1156Y)): 100%
- remaining binding at 1 µM (FLT3(R834Q)): 100%
- remaining binding at 1 µM (SG110): 92%
- remaining binding at 1 µM (PIK3CA(H1047Y)): 92%
- remaining binding at 1 µM (DCAMKL3): 75%
- remaining binding at 1 µM (HIPK2): 100%
- remaining binding at 1 µM (PIK3CA(C420R)): 76%
- remaining binding at 1 µM (PIM1): 82%
